The values that follow come from patent US9034819B2, “Method of lowering cholesterol and triglycerides by administering exendins” (Amylin Pharmaceuticals, LLC, priority 2008, dated 2015).

Assay type in all cases: in vivo, human
Test [1] relates to hemoglobin A1C. As to the kind of experiment: Hemoglobin A1C by HPLC, 30 week study in patients with Type 2 diabetes. The following applies: decrease from baseline to week 30; SC; once weekly 2 mg or twice daily 10 μg. The method, then: (§1) The pharmacokinetics of a long-acting release formulation of exenatide was evaluated in a study in patients with Type 2 diabetes. The study population consisted of individuals with type 2 diabetes treated with a stable regimen of oral diabetes medications or managed with diet modification and exercise. […] The 30 week study compared a 10 μg formulation of exenatide administered twice daily (BTD) by subcutaneous (SC) injection and a 2 mg formulation of exenatide administered once weekly by subcutaneous (SC) injection. The study was also conducted, inter alia, to examine the effects of such administration on the individual's total cholesterol, LDL-cholesterol, HDL-cholesterol, triglyceride levels, hemoglobin A1C, fasting postprandial blood glucose, and weight. […]
(§2) Exenatide once weekly is a sustained-release formulation of exenatide (exendin-4) designed to provide exenatide release over a period ranging from 7 to 91 days. […] The vial containing the white to off-white dry powder (2.8 mg of exenatide once weekly) was stored frozen in a freezer with a recorded temperature at ≦−20±5° C. at the study site.
Plasma exenatide was quantified by a validated Enzyme-Linked Immunosorbent Assay (ELISA) at Millipore (Billerica, Mass.). […] Glycosylated hemoglobin was quantitated by Quintiles Laboratories (Smyrna, Ga.) using high-performance liquid chromatography. […]

Test [2] concerns fasting triglycerides. Nature of the test: Fasting triglycerides, 30 week study in patients with Type 2 diabetes. The following applies: decrease from baseline to week 30; SC; once weekly 2 mg or twice daily 10 μg. The procedure: as §1, §2
(§3) Patients were monitored about every four weeks for body weight, vital signs (including blood pressure, heart rate, respiratory rate, and temperature), urinalysis, and adverse events. […]

Test [3] is described as follows: Body weight, 30 week study in patients with Type 2 diabetes. The following applies: weight loss from baseline to week 30, SC, once weekly 2 mg or twice daily 10 μg. The method, then: as §1, §2, §3
Test [4] concerns blood glucose. As to the kind of experiment: Fasting postprandial blood glucose, 30 week study in patients with Type 2 diabetes. The following applies: decrease from baseline to week 30; SC; once weekly 2 mg or twice daily 10 μg. The method, then:
(§4) The pharmacokinetics of a long-acting release formulation of exenatide was evaluated in a study in patients with Type 2 diabetes. The study population consisted of individuals with type 2 diabetes treated with a stable regimen of oral diabetes medications or managed with diet modification and exercise. […] The 30 week study compared a 10 μg formulation of exenatide administered twice daily (BTD) by subcutaneous (SC) injection and a 2 mg formulation of exenatide administered once weekly by subcutaneous (SC) injection. The study was also conducted, inter alia, to examine the effects of such administration on the individual's total cholesterol, LDL-cholesterol, HDL-cholesterol, triglyceride levels, hemoglobin A1C, fasting postprandial blood glucose, and weight.
During the 3-day lead-in period, patients self-administered exenatide 5 μg SC, BID, within 15 minutes prior to meals in the morning and evening. […]
as §2

For test [5], the system named is total cholesterol, LDL-cholesterol, HDL-cholesterol. As to the kind of experiment: Total, LDL- and HDL-cholesterol, 30 week study in patients with Type 2 diabetes. As to conditions: SC. The procedure: as §4
During the 3-day lead-in period, patients self-administered exenatide 5 μg SC, BID, within 15 minutes prior to meals in the morning and evening. The exenatide 5 μg SC, BID used in the 3-day lead-in period was a clear, colorless, sterile preserved solution for SC injection containing exenatide (exendin-4) in sodium acetate buffer, pH 4.5, 4.3% mannitol as an iso-osmolality modifier and 0.22% metacresol as a preservative. The strength of exenatide injection was 0.25 mg/mL of exendin-4.
During the 30-week treatment period, patients received once weekly subcutaneous injections of a 2.0 mg dose pharmaceutical formulation containing 5% exenatide or patient received twice daily subcutaneous injections of exenatide at 10 μg per dose.
as §2, §3

Where [6] appears, read: decrease from baseline to week 30, once weekly 2 mg or twice daily 10 μg.

Take “exenatide BID: 10 μg formulation of exenatide (exendin-4) administered twice daily by subcutaneous injection”: the “HbA1C decreased by an average of” value in test [1] is recorded as 1.5%. Moreover, the “fasting triglycerides decreased by an average of” value in test [2] is 22 mg/dL. Moreover, the “body weight decreased by an average of (weight loss)” value is recorded as “about 3.6 kg” in test [3] and 3.6 kg in test [3] (listed as exenatide twice daily). Also, the “fasting postprandial blood glucose decreased by an average of” value in test [4] is reported as 25 mg/dL. In test [5] (setting [6]), the “HDL-cholesterol decreased by an average of” value worked out at 1.3 mg/dL. Besides, the “total cholesterol decreased by an average of” value in test [5] (setting [6]) amounted to 3.8 mg/dL. The “LDL-cholesterol increased by an average of” value in test [5] (increase from baseline to week 30, twice daily 10 μg) is 1.2 mg/dL.
